Literature values, collected in US11813289B2, “Encapsulated antimicrobials and related methods of treatment” (ADVANTAGE SILVER DENTAL ARREST, LLC, priority 2018, dated 2023).

Tested on: dentinal caries lesions
Settings: lesions that had progressed into the dentin

silver diamine fluoride [SDF]
dentinal caries lesions arrested after treatment: two-thirds
